Results from patent publication US20250332108A1 (Veradermics, Incorporated, priority 2024, published 2025).
Like-named read-outs stand apart in the source and are kept apart here.

What was measured:
hypertensive patients = settings: intravenous infusion; cited from earlier work
mice = settings: dietary, cited from earlier work
dogs = settings: short-term administration 0.5 mg to 10 mg/kg/day; cited from earlier work
rabbits = settings: cited from earlier work
rats [1] = settings: cited from earlier work
[2] = cited from earlier work; for Duration plasma concentrations above 20 ng/ml: immediate release
Chinese hamster cells = Chinese hamster cells at long exposure times; cited from earlier work
rat bone marrow = rat bone marrow micronucleus assay; cited from earlier work
subjects with hair loss = settings: cited from earlier work
male adults with AGA = settings: 5 mg oral at bedtime, cited from earlier work
rats [3] = settings: cited from earlier work; remark: listed apart in the source
mouse bone marrow = mouse bone marrow micronucleus assay; cited from earlier work
human lymphocytes = settings: cited from earlier work
[4] = tested on: person with androgenetic alopecia; experiment: Case studies: oral minoxidil in males with androgenetic alopecia (blood pressure, heart rate, hair growth)
rat hepatocyte = settings: in vitro rat hepatocyte unscheduled DNA synthesis assay; cited from earlier work
Salmonella = Salmonella (Ames) test; cited from earlier work
patients = settings: cited from earlier work
[5] = cited from earlier work
[6] = oral, dose level 2.5 mg, healthy volunteers
[7] = oral, dose level 5 mg, healthy volunteers
[8] = oral, dose level 10 mg, healthy volunteers

SMILES: Nc1cc(N2CCCCC2)nc(N)[n+]1[O-] [Minoxidil]
- Steady state plasma concentrations associated with significant (>5 beats per minute) changes in heart rate (hypertensive patients): above 20 ng/mL
- Incidence of hepatic nodules (mice; up to 2 years, 63 mg/kg/day): increased incidence of hepatic nodules in males
- Incidence of malignant lymphomas (mice; up to 2 years, 10, 25, and 63 mg/kg/day): increased incidence of malignant lymphomas in females at all dose levels
- Cardiac lesions (dogs): various cardiac lesions have been found
- Fetal resorption (rabbits; 5 times the maximum recommended oral antihypertensive human dose): increased fetal resorption
- Teratogenic effects (rabbits): no evidence of teratogenic effects
- Carcinogenicity (rats [1]; doses 15 times the usual human dosage for 22 months): No evidence of carcinogenicity
- Carcinogenicity findings (rats [1]; oral administration, two-year study): no positive findings
- Dose dependence of PK and urinary excretion ([2]; 2.5 mg, 5 mg, or 10 mg oral, healthy volunteers): dose-independent PK
- Effect on blood pressure ([2]; 2.5 mg, 5 mg, or 10 mg oral, normotensive subjects): little effect on blood pressure in normotensive subjects
- Duration plasma concentrations above 20 ng/ml ([2]; 5 mg dose level): around 1 h
- Duration plasma concentrations above 20 ng/ml ([2]; 10 mg dose level): around 2 h
- Observed half-life ([2]; immediate release formulation, oral): around 1 h
- AUC(last) [2, 6]: 25.3 ng·h/mL
- Cmax [2, 6]: 16.8 ng/mL
- T1/2 [2, 6]: 64.2 min
- Tmax [2, 6]: 34 min
- AUC(last) [2, 7]: 55.1 ng·h/mL
- Cmax [2, 7]: 37.2 ng/mL
- T1/2 [2, 7]: 76.2 min
- Tmax [2, 7]: 23.3 min
- AUC(last) [2, 8]: 112 ng·h/mL
- Cmax [2, 8]: 74.7 ng/mL
- T1/2 [2, 8]: 80.4 min
- Tmax [2, 8]: 25.1 min
- Cytogenetic assay result (Chinese hamster cells): equivocal result
- Mutagenicity (rat bone marrow): not mutagenic
- Serious adverse events (SAEs) reported (subjects with hair loss; topical foam 5% versus topical solution 2% in female pattern hair loss, 322 subjects, NCT01145625): Ten serious adverse events (SAEs) were reported
- SAEs reported in subjects treated with minoxidil (subjects with hair loss; topical foam 5% versus vehicle topical foam, 404 subjects, NCT01226459): Six SAEs were reported
- Subjects reporting edema (male adults with AGA; 24 week follow up, 34 subjects): 2.9%
- Subjects reporting headache (male adults with AGA; 24 week follow up, 34 subjects): 20.6%
- Subjects reporting vertigo (male adults with AGA; 24 week follow up, 34 subjects): 2.9%
- Subjects reporting hypertrichosis (male adults with AGA; 24 weeks, 34 subjects): 55.9%
- Adverse cardiovascular outcomes (male adults with AGA; 24 weeks): No adverse cardiovascular outcomes were observed
- Fetal resorption (rats [3]): not seen
- Teratogenic effects (rats [3]): no evidence of teratogenic effects
- Mutagenicity (mouse bone marrow): not mutagenic
- Cytogenetic assay result (human lymphocytes): negative
- Adverse events ([4]; 0.625 mg four times a day): No unwanted hair growth or other adverse events were noticed
- Effect on blood pressure ([4]; 0.625 mg four times a day): did not experience significant reductions in blood pressure
- Adverse events ([4]; 1.25 mg QID): No unwanted hair growth or other adverse events, including any cardiac effects, were noticed
- Mutagenicity (rat hepatocyte): not mutagenic
- Mutagenicity (Salmonella): not mutagenic
- Temporary decrease in hematocrit, hemoglobin, and erythrocyte count (hemodilution) (patients; chronic therapy for severe hypertension, initially): approximately 7%
- Patients in whom hypertrichosis was hardly or not at all tolerable (patients; human, in vivo): less than 10%
- Plasma concentrations above which hemodynamic effects are typically seen (patients; human, in vivo): > 20 ng/mL
- Patients exhibiting ECG alterations in direction and magnitude of T waves (patients; soon after starting therapy): approximately 60%
- Predominant metabolite in urine ([5]; first 12 h, hypertensive patients): A glucuronide conjugate
- Renal clearance ([5]; human, in vivo): 73.3 mL/min
- Radioactivity found in feces ([5]; hypertensive patients): 3%
- Total radioactivity recovered from urine ([5]; hypertensive patients): 97%
- Time to peak plasma levels ([5]; oral): ≤ 1 h
- Fraction of oral minoxidil metabolized ([5]; primarily by conjugation with glucuronic acid): About 90%
- Radiolabeled minoxidil and metabolites recovered from urine ([5]; within 24 h after oral administration, hypertensive patients): Over 80%
